Measurements taken from patent publication US9265777B2, “Antiparasitic agent for fish and method of controlling proliferation of fish parasites” (NIPPON SUISAN KAISHA, LTD., priority 2009, dated 2016).

tested on: Cryptocaryon irritans; test: Examples 3 and 4: oral administration of single inhibitors and a combination against Cryptocaryon irritans on Pagrus major; type: in vivo; conditions: 60 mg/kg fish body weight/day for three days; 60 parasites per plot; P=<0.01
Text: During the rearing period, 1.4 liters/min. of seawater was supplied. […] After exposure, seven fish each were moved into six 100-liter aquariums. During the rearing period, 1.4 liters/min. of seawater was supplied.

Compound	growth rate of parasites (body length as percentage of control plot), difference to control plot
COc1cc(Cc2cnc(N)nc2N)cc(OC)c1OC [TMP, trimethoprim]	statistically significant difference
CN(Cc1cnc2nc(N)nc(N)c2n1)c1ccc(C(=O)N[C@@H](CCC(=O)O)C(=O)O)cc1 [MTX, methotrexate]	statistically significant difference
N=C(N)c1ccc(OCCCCCOc2ccc(C(=N)N)cc2)cc1.O=S(=O)(O)CCO.O=S(=O)(O)CCO [PMD, isethionic acid pentamidine salt]	statistically significant difference

same assay, conditions: 300 mg/kg fish body weight/day for three days; 60 parasites per plot; P=<0.01

Compound	growth rate of parasites (body length as percentage of control plot), difference to control plot
Cc1ccnc(NS(=O)(=O)c2ccc(N)cc2)n1 [SMDN, sulfamerazine]	statistically significant difference
COc1cc(NS(=O)(=O)c2ccc(N)cc2)nc(OC)n1 [SDMX, sulfadimethoxine]	statistically significant difference
COc1cc(NS(=O)(=O)c2ccc(N)cc2)ncn1 [SMMX, sulfamonomethoxine]	statistically significant difference
Cc1cc(NS(=O)(=O)c2ccc(N)cc2)nc(C)n1 [SID, sulfisomidine]	statistically significant difference
sulfisozole [SIZ]	statistically significant difference
Cc1nnc(NS(=O)(=O)c2ccc(N)cc2)s1 [SMZ, sulfamethizole]	statistically significant difference

tested on: Cryptocaryon irritans; test: Example 1: oral administration against parasitism of Cryptocaryon irritans on Pagrus major (1); conditions: 50 mg trimethoprim/kg body weight/day orally for three days; three days after the exposure

Compound	number of parasites (left gills, FIG. 1) relative to control plot
COc1cc(Cc2cnc(N)nc2N)cc(OC)c1OC [TMP, trimethoprim]	tend to be large
